For assay [1], the system named is Major depression disorder in Wistar rats. Description: Open field test (ambulatory behavior) in Reserpine-induced major depression disorder. The class given is in vivo.
The test system of assay [2] is Valproic acid-induced autism disorder in albino Wistar rats. Description: Morris water maze test in Valproic acid-induced autism disorder. Format: in vivo. Also noted: Escape latency / Retention time: unit not given here. The conditions noted are these: for Escape latency / Retention time: PND 40, VPA 400 mg/kg, oral daily PND 14 to PND 40, mean ± SEM; for Learning and memory activities, Morris water maze (in words): PND 40, compared to Disease control or to Group-3 and Group-4. As for the experimental part:
The present study was to evaluate the effect of test substances on Valproic acid induced Autism spectrum disorder in wistar rats. The animals (50 animals) were divided into five groups each group consisting of 10 animals (5 animals per sex). Animals in Group-1 were treated with vehicle (0.5% CMC), Group-2 was treated with Valproic acid (VPA) 400 mg/kg via subcutaneous route, Group-3, Group-4 and Group-5 were treated with test substance Agmatine Sulphate (25.83 mg/kg), Nicotinamide Riboside chloride (6.46 mg/kg) and Agmatine Sulphate+Nicotinamide Riboside chloride (25.83 mg/kg+6.46 mg/kg) respectively, according to the body weight of animals. At the end of the experimental period, blood was collected from each group for biochemical analyses. On postnatal day 40 (PND 40), all the animals were exposed to the Morris water maze test and Open field test for specific time periods to determine the autism-like behaviors of the test substances. […] The experiment was performed in 14-day old male and female off springs. The weight of the rat pups on the first day of the experiment was 20-40 grams. Sodium Valproate at dose of 400 mg/kg was freshly prepared and administered via subcutaneous route to the rat pups on postnatal day 14 (PND 14). All the animals were divided into five groups and each group contained the same amount of male and female offspring (5 males and 5 females, per group). Animals in Group-1 served as Normal control and were treated with 0.5% CMC, Group-2 served as Disease control and were treated with VPA (400 mg/kg) via intraperitoneally (i.p.), whereas Group-3 was treated with Test-1 Agmatine Sulphate (25.83 mg/kg), Group-4 was treated with Test-2 Nicotinamide Riboside chloride (6.46 mg/kg) and Group-5 was treated with Test-1+Test-2 Agmatine Sulphate+Nicotinamide Riboside chloride (25.83 mg/kg+6.46 mg/kg). The assigned test substances were administered once daily from PND 14 to PND 40. In addition, behaviors of experimental animals were determined via Morris water maze and open field test. […] The dose volume administered to each rat was 10 ml/kg/day. Similarly, 0.5% CMC for Normal control and Disease control groups was administered orally at the same dose volume for a minimum of 26 consecutive days. The dose volume was calculated for individual animals on the first day of the treatment and was re-calculated according to the recent body weights recorded during the study. Daily individual dose volumes were recorded in the study records. The animals were exposed to a pool consisting of 4 quadrants (Northeast, Southeast, Southwest, and Northwest) which was filled with tap water (25° C., 40 cm deep) and covered with nontoxic milk. The removable platform was immersed below the water surface of one quadrant. Each animal had to memorize the location of the immersed platform by using specific visual cues placed around the outside of the tank. The time spent by each rat in finding and climbing on the immersed platform was recorded as the escape latency. Twenty-four hours later, the animal was re-exposed to the same condition, except that the immersed platform had been removed. The mean time that each rat spent in the target quadrant in order to search for the missing platform was noted as the retention time and was used as the index of retrieval memory. Both the escape latency and the retention time in a 5-minute exposure time were used as indices of learning and memory. A blind observer always stood at the same position, and care was taken not to disturb the relative location of water maze with respect to other objects in the laboratory. The determination of the spatial memory capacity via this test was done on PND 40.

In assay [3] the test system is Lactate dehydrogenase. As to the kind of experiment: Lactate dehydrogenase (LDH) level in Valproic acid-induced autism disorder. Format: in vivo, Albino wistar rats. Particulars: for LDH: VPA 400 mg/kg, oral daily for 26 days, mean ± SEM; for Levels of lactate dehydrogenase (in words): compared to Disease control or to Group-3 and Group-4. The procedure:
The present study was to evaluate the effect of test substances on Valproic acid induced Autism spectrum disorder in wistar rats. The animals (50 animals) were divided into five groups each group consisting of 10 animals (5 animals per sex). Animals in Group-1 were treated with vehicle (0.5% CMC), Group-2 was treated with Valproic acid (VPA) 400 mg/kg via subcutaneous route, Group-3, Group-4 and Group-5 were treated with test substance Agmatine Sulphate (25.83 mg/kg), Nicotinamide Riboside chloride (6.46 mg/kg) and Agmatine Sulphate+Nicotinamide Riboside chloride (25.83 mg/kg+6.46 mg/kg) respectively, according to the body weight of animals. At the end of the experimental period, blood was collected from each group for biochemical analyses. On postnatal day 40 (PND 40), all the animals were exposed to the Morris water maze test and Open field test for specific time periods to determine the autism-like behaviors of the test substances.
The experiment was performed in 14-day old male and female off springs. The weight of the rat pups on the first day of the experiment was 20-40 grams. Sodium Valproate at dose of 400 mg/kg was freshly prepared and administered via subcutaneous route to the rat pups on postnatal day 14 (PND 14). All the animals were divided into five groups and each group contained the same amount of male and female offspring (5 males and 5 females, per group). Animals in Group-1 served as Normal control and were treated with 0.5% CMC, Group-2 served as Disease control and were treated with VPA (400 mg/kg) via intraperitoneally (i.p.), whereas Group-3 was treated with Test-1 Agmatine Sulphate (25.83 mg/kg), Group-4 was treated with Test-2 Nicotinamide Riboside chloride (6.46 mg/kg) and Group-5 was treated with Test-1+Test-2 Agmatine Sulphate+Nicotinamide Riboside chloride (25.83 mg/kg+6.46 mg/kg). The assigned test substances were administered once daily from PND 14 to PND 40. In addition, behaviors of experimental animals were determined via Morris water maze and open field test.
The test item formulations were administered once each day by oral route at the dose levels of 25.83 mg/kg (agmatine sulphate), 6.46 mg/kg (nicotinamide riboside chloride) and 25.83 mg/kg+6.46 mg/kg/day (agmatine sulphate+nicotinamide riboside chloride), to rats of corresponding groups for a minimum of 26 consecutive days at approximately same time each day (±1 hour). The dose volume administered to each rat was 10 ml/kg/day. Similarly, 0.5% CMC for Normal control and Disease control groups was administered orally at the same dose volume for a minimum of 26 consecutive days. The dose volume was calculated for individual animals on the first day of the treatment and was re-calculated according to the recent body weights recorded during the study. Daily individual dose volumes were recorded in the study records.
Lactate dehydrogenase (also called lactic acid dehydrogenase or LDH) is an enzyme found in almost all body tissues. It plays an important role in cellular respiration, the process by which glucose (sugar) from food is converted into usable energy for our cells.

Regarding `N=C(N)NCCCCN.O=S(=O)(O)O` [Agmatine sulphate], the “No. of open arm entries (Open field test)” value in assay [1] (po) is given as 36.00 ± 0.86. For the same compound, the values for the Escape latency in assay [2] (Female) and in assay [2] (Male) were 14.20 ± 0.37 and 14.00 ± 0.71, respectively. For the same compound, the Retention time stood at 24.80 ± 0.58 in assay [2] (Female) and 24.20 ± 0.73 in assay [2] (Male). In addition, the “Learning and memory activities, Morris water maze (in words)” value in assay [2] was “significantly increased learning and memory activities”. The LDH in assay [3] (Female) is reported as 272.20 ± 3.34 U/L; in assay [3] (Male), 268.20 ± 2.56 U/L. Moreover, in assay [3], the “Levels of lactate dehydrogenase (in words)” value is “normalized levels of lactate dehydrogenase”.

Consider `NC(=O)c1ccc[n+]([C@@H]2O[C@H](CO)[C@@H](O)[C@H]2O)c1.[Cl-]` [Nicotinamide Riboside chloride, nicotinamide riboside chloride], for which the “No. of open arm entries (Open field test)” value in assay [1] (6 minute session, Reserpine induced, oral daily 7 days, mean ± SEM, n = 6) is given as 31.33 ± 0.71. In addition, the values for the Escape latency in assay [2] (Female) and in assay [2] (Male) were 15.20 ± 0.37 and 15.40 ± 0.51, respectively. In addition, the results for the Retention time in assay [2] (Female) and in assay [2] (Male) were 26.40 ± 0.68 and 26.20 ± 0.49, respectively. Besides, in assay [2], the “Learning and memory activities, Morris water maze (in words)” value is “significantly increased learning and memory activities”. In addition, the LDH is reported as 275.80 ± 1.71 U/L in assay [3] (Female) and 274.00 ± 3.11 U/L in assay [3] (Male). For the same compound, in assay [3], the “Levels of lactate dehydrogenase (in words)” value is reported as “normalized levels of lactate dehydrogenase”.

For the origin of these results see US11285167B2, “Synergistic nutritional neuroprotective compositions for ameliorating neural dysfunction” (CELAGENEX RESEARCH (INDIA) PVT. LTD., priority 2019, dated 2022).
